This passage reports TGI results from PubChem BioAssay (NCI).

Test systems include ACHN renal; OVCAR-5 ovarian; COLO 205 colon; MDA-MB-231 breast; KM12 colon; SK-MEL-5 melanoma; SK-OV-3 ovarian; MALME-3M melanoma; MOLT-4 leukemia; PC-3 prostate; SNB-75 CNS; 786-0 renal; A549 NSCLC.
Common to all, as to experiment: DTP human tumour cell line panel, 48 h

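All cell lines were grown in 96-well plates and treated with compound for 48 hours. TGI marks complete inhibition of growth.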

With `CN(C)N1C(=O)S/C(=C\c2ccc([N+](=O)[O-])cc2)C1=O`, the TGI in the assay on ACHN renal, with OVCAR-5 ovarian, in the assay with COLO 205 colon, in the assay with MDA-MB-231 breast, with KM12 colon and with SK-MEL-5 melanoma was greater than 100 µM throughout. The TGI (as a rule, the concentration at which net growth stops) in the assay with SK-OV-3 ovarian was greater than 100 µM; with MALME-3M melanoma, greater than 100 µM; with MOLT-4 leukemia, greater than 100 µM; in the assay with PC-3 prostate, greater than 100 µM; with SNB-75 CNS, 98.7 µM; with 786-0 renal, greater than 100 µM. Moreover, the TGI with A549 NSCLC was greater than 100 µM.
For `[B-][P+](CC[P+]1([B-])[C@@H](C)[C@@H](O)[C@H](O)[C@@H]1C)(c1ccccc1)c1ccccc1OC` (stereo partly specified), the TGI in the assay with ACHN renal was 31.6 µM; in the assay with OVCAR-5 ovarian it was 32 µM; with COLO 205 colon, 32.6 µM; with MDA-MB-231 breast, 29.5 µM; in the assay with KM12 colon, 33.1 µM; in the assay with SK-MEL-5 melanoma, 29.3 µM. The TGI was 37.6 µM in the assay on SK-OV-3 ovarian; 24.4 µM in the assay with MALME-3M melanoma; 41.7 µM in the assay on MOLT-4 leukemia; 35.6 µM in the assay on PC-3 prostate; 28.3 µM in the assay on SNB-75 CNS; 60.8 µM with 786-0 renal. Besides, in the assay on A549 NSCLC, the total growth inhibition concentration (TGI) stood at 28.8 µM.
`Cn1c2ccccc2c(=O)c2c(O)cc3c(c21)C=CC(C)(C)O3`: the TGI in the assay with OVCAR-5 ovarian, with COLO 205 colon, in the assay with KM12 colon, in the assay with SK-MEL-5 melanoma, with SK-OV-3 ovarian and in the assay with MALME-3M melanoma was greater than 25 µM throughout. Further, the TGI is 24.9 µM with SNB-75 CNS and greater than 25 µM with A549 NSCLC.
Regarding `Nc1ncnc2c1ncn2C1CCC(CP(=O)(O)O)C1` (stereo unspecified), the TGI with ACHN renal, in the assay with OVCAR-5 ovarian, in the assay on COLO 205 colon, in the assay with MDA-MB-231 breast, with KM12 colon and in the assay with SK-MEL-5 melanoma was greater than 100 µM each time. The TGI with SK-OV-3 ovarian, in the assay on MALME-3M melanoma, with PC-3 prostate, in the assay on 786-0 renal and in the assay with A549 NSCLC was greater than 100 µM throughout.
In the case of `CC1C2C=C(O)C(=O)C(C2=O)C1c1ccccc1` (stereo unspecified), the TGI with ACHN renal, in the assay on OVCAR-5 ovarian, in the assay with COLO 205 colon, with KM12 colon, in the assay with SK-MEL-5 melanoma and in the assay with SK-OV-3 ovarian was greater than 100 µM each time. Also, the TGI in the assay on MALME-3M melanoma, in the assay with MOLT-4 leukemia, with SNB-75 CNS, in the assay with 786-0 renal and in the assay with A549 NSCLC was greater than 100 µM in each case.
Take `O=C1NN(Cc2ccccc2)C(=O)N2CCC[C@@H]12`: the TGI in the assay on ACHN renal, in the assay with OVCAR-5 ovarian, in the assay on COLO 205 colon, in the assay on MDA-MB-231 breast, in the assay with KM12 colon and with SK-MEL-5 melanoma was greater than 100 µM in each case. Further, the total growth inhibition concentration (TGI) with SK-OV-3 ovarian, in the assay on MALME-3M melanoma, in the assay on MOLT-4 leukemia, with PC-3 prostate, in the assay with 786-0 renal and with A549 NSCLC was greater than 100 µM each time.
On to `Cn1cc2ccccc2c1-c1nc(F)nc(Oc2ccc3c(c2)CC[C@@H]2C3CC[C@@]3(C)C2C[C@H](O)[C@@H]3O)n1` (stereo partly specified), for which the TGI in the assay on ACHN renal worked out at 47.6 µM; with OVCAR-5 ovarian, 39.2 µM; with COLO 205 colon, 32.4 µM; with KM12 colon, 36.1 µM; in the assay on SK-MEL-5 melanoma, 36.8 µM; with SK-OV-3 ovarian, 52.2 µM. Moreover, the TGI in the assay on MALME-3M melanoma is 75.4 µM; with MOLT-4 leukemia, 26.1 µM; with SNB-75 CNS, 41.1 µM; in the assay with 786-0 renal, 31.3 µM; in the assay with A549 NSCLC it was 34.1 µM.
As to `CCCCCCCCCOCC(COP(=O)([O-])OCC[N+](C)(C)C)OC` (stereo unspecified), the TGI in the assay with OVCAR-5 ovarian, in the assay with COLO 205 colon, in the assay on KM12 colon, with SK-MEL-5 melanoma, in the assay on SK-OV-3 ovarian and in the assay with MALME-3M melanoma was greater than 100 µM in each case. In addition, the concentration for total growth inhibition (TGI) in the assay with MOLT-4 leukemia, in the assay on SNB-75 CNS and in the assay with A549 NSCLC was greater than 100 µM in each case.
For `CCOC(=O)CC(NC(=O)c1[nH]cnc1/N=N/N(C)C)C(=O)OCC` (stereo unspecified), the TGI in the assay on ACHN renal, in the assay with OVCAR-5 ovarian, with COLO 205 colon, in the assay on KM12 colon, in the assay on SK-MEL-5 melanoma and in the assay on SK-OV-3 ovarian was greater than 100 µM throughout. The TGI in the assay on MALME-3M melanoma, in the assay on MOLT-4 leukemia, in the assay on SNB-75 CNS, in the assay on 786-0 renal and in the assay on A549 NSCLC was greater than 100 µM in each case.
As to `CC(C)C1NC(=O)CC(c2ccccc2)N(N=O)C1c1ccccc1` (stereo unspecified), the TGI with OVCAR-5 ovarian, in the assay with COLO 205 colon, in the assay on KM12 colon, with SK-MEL-5 melanoma, with SK-OV-3 ovarian and in the assay on MALME-3M melanoma was greater than 100 µM throughout. Also, the total growth inhibition concentration (TGI) in the assay with MOLT-4 leukemia, in the assay on SNB-75 CNS and in the assay with A549 NSCLC was greater than 100 µM in each case.
Take `COc1cc(C2(c3ncc[nH]3)SSSCC2O)ccc1O` (stereo unspecified): the total growth inhibition concentration (TGI) was greater than 100 µM in the assay with OVCAR-5 ovarian; greater than 59.8 µM in the assay on COLO 205 colon; greater than 100 µM in the assay on KM12 colon; greater than 100 µM in the assay with SK-MEL-5 melanoma; greater than 100 µM in the assay on SK-OV-3 ovarian; greater than 54.7 µM in the assay on MOLT-4 leukemia. The TGI with SNB-75 CNS and in the assay on A549 NSCLC was greater than 100 µM in each case.
With `O=C(CSCC(=O)N/N=C\c1cccc([N+](=O)[O-])c1)N/N=C\c1cccc([N+](=O)[O-])c1`, the TGI in the assay with ACHN renal was 33.7 µM; in the assay on COLO 205 colon, greater than 100 µM; in the assay with MDA-MB-231 breast, 53.8 µM; in the assay with KM12 colon, greater than 100 µM; in the assay on SK-MEL-5 melanoma it was greater than 100 µM; with SK-OV-3 ovarian, greater than 100 µM. Also, the TGI is 69.1 µM in the assay with MALME-3M melanoma; greater than 100 µM in the assay on MOLT-4 leukemia; 65.6 µM with SNB-75 CNS; 63.6 µM in the assay with 786-0 renal; greater than 100 µM in the assay on A549 NSCLC.
Regarding `CSCSCC(CO)NC(=O)/C(C)=C\c1c(C)[nH]c(=O)[nH]c1=O` (stereo unspecified), the concentration for total growth inhibition (TGI) with OVCAR-5 ovarian, in the assay with COLO 205 colon, in the assay on KM12 colon, in the assay on SK-MEL-5 melanoma, in the assay on SK-OV-3 ovarian and in the assay with MALME-3M melanoma was greater than 250 µM each time. Also, the TGI with MOLT-4 leukemia, in the assay on SNB-75 CNS and with A549 NSCLC was greater than 250 µM throughout.
